# Read-outs that look alike come from different tables or passages of the source.
# How the values were obtained:
# [1] = target: T1, CDK1/cyclin B (Homo sapiens, UniProt P06493); test: CDK1/cyclin B kinase inhibition assay (histone H1, [γ-33P]ATP); type: biochemical; details: averaged from triplicates; 15 μM ATP
# T1 construct: made in house; host or cells: Sf9 insect cells (baculovirus co-infection)
# Procedure: (§1) CDK1/cyclin B and CDK2/cyclin E kinases were produced in Sf9 insect cells coinfected with appropriate baculoviral constructs. The cells were harvested 70 h post infection, incubated in lysis buffer (50 mM Tris pH 7.4, 150 mM NaCl, 5 mM EDTA, 20 mM NaF, 1% Tween 20, 1 mM DTT, 0.1 mM PMSF, 0.5 μg/ml leupeptine, 1 μg/ml aprotonine) for 30 min on ice and the soluble fraction was recovered by centrifugation at 20.000 g for 10 min. The enzymes were purified on NiNTA column (Qiagen), stored at 4° C. and used within a week. To carry out the enzyme inhibition assays under linear conditions, the final point test system for kinase activity measurement was used. Kinase was added to reaction mixture in such a way as to obtain linear activity with respect to the concentration of enzyme and with respect to time. For determination of kinase inhibition the reaction mixture contained 1 mg/ml histone H1 (type III-S, Sigma) in the presence of 15 μM ATP, 0.05 μCi [γ-^33P]ATP and the tested compound in a final volume of 10 μl; all in reaction buffer (50 mM HEPES, 10 mM MgCl2, 5 mM EGTA, 10 mM 2-glycerolphosphate, 1 mM NaF, 1 mM DTT, pH 7.4). After 20 min incubation, the reactions were stopped by the addition of 5 μl of a 3% H3PO4, aliquots were spotted on P-81 phosphocellulose (Whatman, USA) that was subsequently washed 3× with 5% H3PO4 and finally air dried. The measurements of kinase inhibition employed digital image analyzer BAS-1800 (Fujifilm, Japan). Kinase activity was usually expressed as a percentage of maximum activity. […] For the purpose of kinetic analysis, the activity was expressed as arbitrary units (AU) of digital image analyzer signal.
# [2] = target: T2, CDK2/cyclin E (Homo sapiens, UniProt P24941); test: CDK2/cyclin E kinase inhibition assay (histone H1, [γ-33P]ATP); type: biochemical; details: for IC50: averaged from triplicates, 15 μM ATP
# T2 construct: made in house; host or cells: Sf9 insect cells (baculovirus co-infection)
# Procedure: as §1
# [3] = test system: G 361 (human malignant melanoma); test: In vitro cytotoxicity, Calcein AM, 72 h; type: cell-based; details: for IC50: read-out: IC50 (μM) G361; for % of viable cells G361: at 100 μM
# Procedure: (§2) Tested drugs were added to the cell cultures in six different concentration and kept at 37° C. and 5% CO2 for three days.
# (§3) The cells, cultured in DMEM (supplemented with 10% fetal calf serum, 4 mM glutamine, 100 IU/ml penicillin, 100 μg/ml streptomycin) in a humidified CO2 incubator at 37° C., were redistributed into 96-well microtitre plates (10.000 cells per well). After 12 h preincubation, tested compounds in six-fold dilutions were added. Treatment of cells with the tested compounds (in the 1-100 μM range) lasted for 72 h.
# [4] = test system: HOS (human osteogenic sarcoma); test: In vitro cytotoxicity, Calcein AM, 72 h; type: cell-based; details: for IC50: read-out: IC50 (μM) HOS; for % of viable cells HOS: at 100 μM
# Procedure: as §2, §3
# [5] = test system: K562 (human chronic myeloblastic leukemia); test: In vitro cytotoxicity, Calcein AM, 72 h; type: cell-based; details: for IC50: read-out: IC50 (μM) K562; for % of viable cells K562: at 100 μM
# Procedure: as §2, §3
# [6] = test system: MCF7 (human breast adenocarcinoma); test: In vitro cytotoxicity, Calcein AM, 72 h; type: cell-based; details: for IC50: read-out: IC50 (μM) MCF7; for % of viable cells MCF7: at 100 μM
# Procedure: as §2, §3
# [7] = In vitro cytotoxicity, Calcein AM, 72 h; type: cell-based, human; details: human, at 100 μM
# Procedure: as §2, §3
# [8] = G 361 cells (human malignant melanoma), 72 h, read-out: % of viable cells G361
# [9] = HOS cells (human osteogenic sarcoma), read-out: % of viable cells HOS
# [10] = K562 cells (human chronic myeloblastic leukemia), 72 h, read-out: % of viable cells K562
# [11] = MCF7 cells (human breast adenocarcinoma), 72 h, read-out: % of viable cells MCF7
# [12] = Homo sapiens, G-361, 72 h, Calcein AM, triplicates
# [13] = Homo sapiens, Calcein AM, triplicates
# [14] = Homo sapiens, K562, 72 h, Calcein AM, triplicates
# [15] = Homo sapiens, MCF7, 72 h, Calcein AM, triplicates
# T1 sequence (P06493 whole entry): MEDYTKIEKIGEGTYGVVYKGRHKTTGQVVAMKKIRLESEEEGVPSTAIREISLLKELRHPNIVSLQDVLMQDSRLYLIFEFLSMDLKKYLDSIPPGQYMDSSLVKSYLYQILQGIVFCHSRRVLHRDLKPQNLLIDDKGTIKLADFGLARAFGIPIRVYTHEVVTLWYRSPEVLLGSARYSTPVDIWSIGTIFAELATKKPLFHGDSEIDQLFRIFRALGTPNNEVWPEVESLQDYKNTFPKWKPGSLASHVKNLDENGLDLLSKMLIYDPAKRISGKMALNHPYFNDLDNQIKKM
# T1 sequence (P14635 whole entry partner): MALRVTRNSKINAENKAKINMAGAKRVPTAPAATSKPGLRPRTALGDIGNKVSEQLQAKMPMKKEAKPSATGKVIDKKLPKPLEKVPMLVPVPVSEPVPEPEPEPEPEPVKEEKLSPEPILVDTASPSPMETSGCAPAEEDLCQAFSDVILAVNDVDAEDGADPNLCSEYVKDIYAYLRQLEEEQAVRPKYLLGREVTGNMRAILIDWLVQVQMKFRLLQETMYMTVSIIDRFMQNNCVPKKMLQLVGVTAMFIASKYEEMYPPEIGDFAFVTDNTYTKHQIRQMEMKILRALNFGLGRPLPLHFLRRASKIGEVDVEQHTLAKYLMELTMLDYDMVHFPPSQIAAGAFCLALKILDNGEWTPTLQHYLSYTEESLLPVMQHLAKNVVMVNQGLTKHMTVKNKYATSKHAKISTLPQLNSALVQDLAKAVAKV
compound,measurement,setting,value
"Nc1n[nH]c(N)c1N=Nc1ccccc1 [Compound 1b, 3,5-diamino-4-(phenyl)azo-pyrazole]",IC50,[1],25 µM
same,IC50,[2],22 µM
same,IC50,"[3]; 72 h, Calcein AM, triplicates",> 100 µM
same,% of viable cells G361,[3]; 72 h,(75 ± 2%)
same,IC50,"[4]; Calcein AM, triplicates",> 100 µM
same,% of viable cells HOS,[4],(83 ± 8%)
same,IC50,"[5]; 72 h, Calcein AM, triplicates",> 100 µM
same,% of viable cells K562,[5]; 72 h,(90 ± 14%)
same,IC50,"[6]; 72 h, Calcein AM, triplicates",> 100 µM
same,% of viable cells MCF7,[6]; 72 h,(74 ± 5%)
"Nc1n[nH]c(N)c1/N=N/c1ccc(F)cc1 [Compound 3b, 3,5-diamino-4-(4-fluoro)phenylazo-pyrazole]",IC50,[1],25 µM
same,IC50,[2],24 µM
"Nc1n[nH]c(N)c1/N=N/c1ccc(Cl)cc1 [Compound 4b, 3,5-diamino-4-(4-chloro)phenylazo-pyrazole]",IC50,[1],60 µM
same,IC50,[2],45 µM
"Nc1n[nH]c(N)c1/N=N/c1ccc(Br)cc1 [Compound 5b, 3,5-diamino-4-(4-bromo)phenylazo-pyrazole]",IC50,[1],> 100 µM
"Nc1n[nH]c(N)c1/N=N/c1ccc(I)cc1 [Compound 6b, 3,5-diamino-4-(4-iodo)phenylazo-pyrazole]",IC50,[1],> 100 µM
"Nc1n[nH]c(N)c1N=Nc1ccccc1[N+](=O)[O-] [Compound 7b, 3,5-diamino-4-(2-nitro)phenylazo-pyrazole]",IC50,[1],2.6 µM
same,IC50,[2],6.1 µM
same,"viability at 72 h, 100 µM",[7]; [8],58%
same,"viability at 72 h, 100 µM",[7]; [9],57%
same,"viability at 72 h, 100 µM",[7]; [10],48%
same,"viability at 72 h, 100 µM",[7]; [11],62%
same,IC50,[3]; [12],> 100 µM
same,IC50,[4]; [13],> 100 µM
same,IC50,[5]; [14],100 ± 10 µM
same,IC50,[6]; [15],> 100 µM
"Nc1n[nH]c(N)c1/N=N/c1cccc([N+](=O)[O-])c1 [Compound 8b, 3,5-diamino-4-(3-nitro)phenylazo-pyrazole]",IC50,[1],4.8 µM
same,"viability at 72 h, 100 µM",[7]; [8],69%
same,"viability at 72 h, 100 µM",[7]; [9],95%
same,"viability at 72 h, 100 µM",[7]; [10],28%
same,"viability at 72 h, 100 µM",[7]; [11],44%
same,IC50,[3]; [12],> 100 µM
same,IC50,[4]; [13],> 100 µM
same,IC50,[5]; [14],79 ± 6 µM
same,IC50,[6]; [15],65 ± 7 µM
"Nc1n[nH]c(N)c1/N=N/c1ccc([N+](=O)[O-])cc1 [Compound 9b, 3,5-diamino-4-(4-nitro)phenylazo-pyrazole]",IC50,[1],16 µM
same,"viability at 72 h, 100 µM",[7]; [8],61%
same,"viability at 72 h, 100 µM",[7]; [9],80%
same,"viability at 72 h, 100 µM",[7]; [10],25%
same,"viability at 72 h, 100 µM",[7]; [11],60%
same,IC50,"[3]; Homo sapiens, G-361, 72 h",> 100 µM
same,IC50,[4]; Homo sapiens,> 100 µM
same,IC50,"[5]; Homo sapiens, K562, 72 h",71 ± 6 µM
same,IC50,"[6]; Homo sapiens, MCF7, 72 h",> 100 µM
"Nc1n[nH]c(N)c1/N=N/c1ccccc1O [Compound 10b, 3,5-diamino-4-(2-hydroxy)phenylazo-pyrazole]",IC50,[1],3.6 µM
same,"viability at 72 h, 100 µM",[7]; [8],74%
same,"viability at 72 h, 100 µM",[7]; [9],84%
same,"viability at 72 h, 100 µM",[7]; [10],72%
same,"viability at 72 h, 100 µM",[7]; [11],72%
same,IC50,[3]; [12],> 100 µM
same,IC50,[4]; [13],> 100 µM
same,IC50,[5]; [14],> 100 µM
same,IC50,[6]; [15],> 100 µM
"Nc1n[nH]c(N)c1/N=N/c1cccc(O)c1 [Compound 11b, 3,5-diamino-4-(3-hydroxy)phenylazo-pyrazole]",IC50,[1],6 µM
same,"viability at 72 h, 100 µM",[7]; [8],70%
same,"viability at 72 h, 100 µM",[7]; [9],83%
same,"viability at 72 h, 100 µM",[7]; [10],53%
same,"viability at 72 h, 100 µM",[7]; [11],71%
same,IC50,[3]; [12],> 100 µM
same,IC50,[4]; [13],> 100 µM
same,IC50,[5]; [14],> 100 µM
same,IC50,[6]; [15],> 100 µM
"Nc1n[nH]c(N)c1N=Nc1ccccc1C(=O)O [Compound 13b, 3,5-diamino-4-(2-carboxy)phenylazo-pyrazole]",IC50,[1],70 µM
same,IC50,[2],88 µM
"Nc1n[nH]c(N)c1N=Nc1cccc(C(=O)O)c1 [Compound 14b, 3,5-diamino-4-(3-carboxy)phenylazo-pyrazole]",IC50,[1],34 µM
same,IC50,[2],27 µM
"CC(=O)NS(=O)(=O)c1ccc(N=Nc2c(N)n[nH]c2N)cc1 [Compound 18b, N-({4-[(3,5-diamino-pyrazol-4-yl)azo]phenyl}sulfonyl)-acetamide]",IC50,[1],> 100 µM
same,inhibition of the enzyme CDK2 (in words),[2],failed to inhibit the enzyme
same,IC50,[2],> 100 µM
"N=C(N)NS(=O)(=O)c1ccc(N=Nc2c(N)n[nH]c2N)cc1 [Compound 19b, N-[amino(imino)methyl]-4-[(3,5-diamino-pyrazol-4-yl)azo]-benzansulfonamide]",IC50,[1],> 100 µM
"Nc1n[nH]c(N)c1N=Nc1ccc(S(=O)(=O)Nc2nccs2)cc1 [Compound 20b, 4-[(3,5-diaminopyrazol-4-yl)azo]-N-(thiazol-2-yl)-benzensulfonamide]",IC50,[1],> 100 µM
same,IC50,[2],> 100 µM
"Cc1cc(C)nc(NS(=O)(=O)c2ccc(N=Nc3c(N)n[nH]c3N)cc2)n1 [Compound 21b, 4-[(3,5-diamino-pyrazol-4-yl)-azo]-N-(4,6-dimethylpyrimidin-2-yl)benzensulfonamide]",IC50,[1],> 100 µM
same,inhibition of the enzyme CDK2 (in words),[2],failed to inhibit the enzyme
same,IC50,[2],> 100 µM
"COc1cnc(NS(=O)(=O)c2ccc(N=Nc3c(N)n[nH]c3N)cc2)nc1 [Compound 22b, 4-[(3,5-diamino-pyrazol-4-yl)-azo]-N-(5-methoxypyrimidin-2-yl)-benzensulfonamide]",IC50,[1],> 100 µM
same,IC50,[2],> 100 µM
"COc1ccc(NS(=O)(=O)c2ccc(N=Nc3c(N)n[nH]c3N)cc2)nn1 [Compound 23b, 4-[(3,5-diamino-pyrazol-4-yl)-azo]-N-(6-methoxypyridazin-3-yl)-benzensulfonamide]",IC50,[1],> 100 µM
same,IC50,[2],> 100 µM
Nc1n[nH]c(N)c1/N=N/c1ccc(-c2nc3ccccc3[nH]c2=O)cc1 [Compound 24b],IC50,[1],> 100 µM
same,IC50,[2],> 100 µM
Nc1n[nH]c(N)c1/N=N/c1ccccc1-c1nc2ccccc2[nH]c1=O [Compound 25b],IC50,[1],> 100 µM
same,IC50,[2],> 100 µM
Nc1n[nH]c(N)c1N=Nc1ccccc1Cc1nc2ccccc2[nH]c1=O [Compound 26b],IC50,[2],95 µM
Cc1cc2nc(Cc3ccccc3N=Nc3c(N)n[nH]c3N)c(=O)[nH]c2cc1C [Compound 27b],IC50,[1],> 100 µM
same,IC50,[2],> 100 µM
"Nc1n[nH]c(N)c1N=Nc1cccc2ccccc12 [Compound 28b, 3,5-diamino-4-(naphth-1-yl)azo-pyrazole]",IC50,[1],5.5 µM
same,IC50,[2],10 µM
same,IC50,"[3]; 72 h, Calcein AM, triplicates",> 100 µM
same,% of viable cells G361,[3]; 72 h,(55 ± 14%)
same,IC50,"[4]; Calcein AM, triplicates",> 100 µM
same,% of viable cells HOS,[4],(79 ± 8%)
same,IC50,"[5]; 72 h, Calcein AM, triplicates",50 ± 3 µM
same,% of viable cells K562,[5]; 72 h,(7.7 ± 6%)
same,IC50,"[6]; 72 h, Calcein AM, triplicates",> 100 µM
same,% of viable cells MCF7,[6]; 72 h,(56 ± 1%)
"Nc1n[nH]c(N)c1N=Nc1ccc2ccccc2c1 [Compound 29b, 3,5-diamino-4-(naphth-2-yl)azo-pyrazole]",IC50,[1],16 µM
same,IC50,[2],15 µM
Cc1c(/N=N/c2c(N)n[nH]c2N)c(=O)n(-c2ccccc2)n1C [Compound 31b],IC50,[1],> 100 µM
same,IC50,[2],> 100 µM
Nc1n[nH]c(N)c1/N=N/c1ccc(C(=O)c2ccc(/N=N/c3c(N)n[nH]c3N)cc2)cc1 [Compound 32d],IC50,[1],> 100 µM
same,IC50,[2],> 100 µM
Nc1n[nH]c(N)c1/N=N/c1cccc(C(=O)c2cccc(/N=N/c3c(N)n[nH]c3N)c2)c1 [Compound 33d],IC50,[1],> 100 µM
same,IC50,[2],> 100 µM
Nc1n[nH]c(N)c1/N=N/c1ccc(S(=O)(=O)c2ccc(/N=N/c3c(N)n[nH]c3N)cc2)cc1 [Compound 34d],IC50,[1],> 100 µM
same,IC50,[2],> 100 µM
Nc1n[nH]c(N)c1/N=N/c1cccc(S(=O)(=O)c2cccc(/N=N/c3c(N)n[nH]c3N)c2)c1 [Compound 35d],IC50,[1],> 100 µM
same,IC50,[2],> 100 µM

# From patent publication US8357673B2, “4-arylazo-3,5-diamino-pyrazole compounds and use thereof” (Univerzita Palackeho V Olomouci, priority 2004, dated 2013)
